Test results reported in US9597364B2, “Treatment of withdrawal symptoms to aid in nicotine use cessation with Passiflora incarnata” (Campbell University, priority 2011, dated 2017).

Tests used:
Male Wistar rats [1] = assay: Effect of passion flower extract on nicotine sensitization (expression of motor sensitization, open field); assay type: in vivo, rat; settings: 0.4 mg/kg s.c. nicotine days 1-4, challenge day 5
Protocol: To produce nicotine sensitization, rats were injected once/day for 4 consecutive days with either nicotine or vehicle. On day 5, known as the test day, rats were divided into four groups; half of those that had received vehicle on days 1-4 were pre-treated with passion flower extract (vehicle-passion flower group) and the other half with vehicle (vehicle-vehicle group). Analogously, half of the rats that received nicotine on days 1-4 received a pre-treatment of i.p. 1:1 water:glycerin (nicotine-vehicle group) on day 5, while the other half was given a pre-treatment of i.p. passion flower extract (nicotine-passionflower group). Each rat was monitored in the open field for 100 consecutive minutes, starting approximately 23 hours after the day 4 nicotine treatment. Before any injections on day 5, rats were placed in the activity chambers until an injection of passion flower extract or vehicle at 25 minutes, then monitored for another 25 minutes, at which point all rats received an injection of nicotine and were monitored for 50 additional minutes.

Male Wistar rats [2] = settings: 0.4 mg/kg nicotine s.c.
Protocol: Male Wistar rats (Charles River, Raleigh, N.C.) were provided with food and water ad libitum on a 12 hour light/dark cycle for 2-3 weeks before beginning any treatments. For all experiments, rats were approximately 45-65 days old and weighed between 148 and 195 g at the beginning of an experiment. Injections of nicotine or its vehicle (water) were subcutaneous (s.c.) administered at 0.4 mg/kg nicotine (Sigma Aldrich, St. Louis, Mo.) and 2 ml/kg. Injections of aqueous passion flower extract (Nature's Answer, Hauppage, N.Y.) or vehicle (1:1 glycerin:water) were intraperitoneal (i.p.) administered at 800 mg/kg and 0.16 ml/kg.
Drug-naive rats were placed individually in an open field for determination of spontaneous activity using the Limelight video tracking system (ActiMetrics, Wilmette, Ill.). Each rat was monitored in the open field for 30 minutes to determine the time course of habituation. Immediately afterward, each rat was injected with vehicle that was subsequently used for nicotine injection at 2 ml/kg and the rats were monitored for 50 minutes. Then each rat was removed from the chamber briefly to be injected s.c. with 0.4 mg/kg nicotine and monitored for another 90 minutes.
Mean velocity (in cm/s) over each 1 sec period was extracted using the LimeLight software and that data was used to calculate the average and SEM of the mean velocities for each 5 minute interval for each treatment group. Figures show the time at the end of the 5 minute period (e.g., 10 minutes is the 5-10 minute interval). In the preliminary assay of nicotine versus vehicle, there were 6 rats and in the chronic nicotine study there were 8-10 rats in each group.

Structure (SMILES): CN1CCCC1c1cccnc1 (stereo not shown) [nicotine]
- activity of nicotine-sensitized group (nicotine-vehicle) after challenge dose of nicotine, compared with vehicle-vehicle group (Male Wistar rats [1]): significantly greater activity than the vehicle-vehicle group
- time of peak activity after injection (Male Wistar rats [2]): 5 to 15 min
- activity compared with vehicle treatment (Male Wistar rats [2]; intervals between 10 and 35 minutes except 15-20 minutes, 2-way ANOVA, Bonferroni p<0.05): significantly different from vehicle treatment
- spontaneous activity (velocity) during the 10-35 minute intervals, average (Male Wistar rats [2]; vehicle average 0.8±0.1 cm/s): 1.9±0.2 cm/s
